The text below walks through data of patent US20170340688A1, “TITRATED EXTRACTS OF CYNARA SCOLYMUS AND USES THEREOF” (priority 2014, published 2017).

The structures appear in SMILES notation. Converted amounts (≈) assume the structure as drawn.

Data set [1] deals with human carcinoma cells DU145. Kind of data set: WST-1 cell vitality in co-treatment with chemotherapeutic agents, DU145. The class given is cell-based. The procedure:
Cytotoxicity was assayed using the WST assay (WSTs=water soluble tetrazolium salts) which utilises the ability of mitochondrial dehydrogenases to separate the tetrazole ring from the yellow-coloured WST molecule (tetrazolium salt) to give an orange formazan salt. The amount of formazan produced following the treatment of the cells with the substances being tested is measured using spectrophotometry and is proportional to the number of living cells. WST-1 and in particular WST-8 (2-(2-methoxy-4-nitrophenyl)-3-(4-nitrophenyl)-5-(2,4-disulfophenyl)-2H-tetrazolium) are advantageous with respect to MTT because they reduce outside the cells, in combination with PMS as electron mediator, to produce water-soluble formazan.
The assays were carried out in parallel with variable doses of cynaropicrin in place of the extract, to compare the efficacy of the extract and that of cynaropicrin.
(In general: Tetrazolium dyes change colour on reduction, which living cells bring about.)

The test system of data set [2] is confluent prostatic adenocarcinoma cell line DU145. Kind of data set: WST-1 cell vitality assay, confluent DU145 (high levels of constitutively activated STAT3). The format is cell-based, human. On the procedure: FIG. 7 Assay of cell vitality in the confluent prostatic adenocarcinoma cell line DU145, treated with various concentrations of artichoke extract (50-600 μg/ml) for various treatment times (24 and 48 hours) with indications of the content in cynaropicrin of the extract. The confluency of the cells increases the levels of constitutively activated STAT3, making the cells themselves largely resistant to death. The vitality was analysed using the WST-1 assay (WST-1 test, see the experimental section for the conditions). […] The squares show the trend over 24 hours and the circles show the trend at 48 hours with extract doses from 0 to 600 μg/ml and the respective content in cynaropicrin, expressed both in μg/ml and in μM, of the extract at the various concentrations (100, 200, 300, 400, 500, 600 μg/ml).
FIG. 8. […] The vitality was analysed using the WST-1 assay (WST-1 test, see the experimental section for the conditions). […]
Cytotoxicity was assayed using the WST assay (WSTs=water soluble tetrazolium salts) which utilises the ability of mitochondrial dehydrogenases to separate the tetrazole ring from the yellow-coloured WST molecule (tetrazolium salt) to give an orange formazan salt. The amount of formazan produced following the treatment of the cells with the substances being tested is measured using spectrophotometry and is proportional to the number of living cells. […]

For data set [3], the target named is T1, STAT3 (Homo sapiens, UniProt P40763). Nature of the data set: Modulation of the STAT3 pathway in KARPAS cells (Western Blot, EMSA). The format is cell-based. The following applies: extract 200 μg/ml (0.181% cynaropicrin) 2-4 hours, cynaropicrin 25 μM. On the procedure:
(§1) The cells were lysed in ice for 30 min in lysis buffer NP40 (50 mM Tris-HCl pH 7.4, 150 mM NaCl, 1% NP-40, 1 mM EGTA, 1 mM EDTA) complemented with inhibitors of protease and phosphatase (5 mM PMSF, 3 mM NaF, 1 mM DTT, 1 mM NaVO4). Equal amounts of total extracts of protein (30 μg) were broken down by means of denaturing electrophoresis (SDS-PAGE) in 8% polyacrylamide gel and transferred for 2 hours on nitrocellulose membrane. The membranes were blocked with a 5% solution of milk dissolved in TBS-Tween_20 0.05% for 1 hour and incubated with the specific primary antibodies. The following primary antibodies were used: anti-beta actin (A-2228, SIGMA), anti-pSTAT3 (Tyr-705) (sc8059, Santa Cruz) and anti-STAT3 (sc7179, Santa Cruz). The secondary antibodies were peroxidase-conjugated (Santa Cruz), and ECL reagents (Amersham, GE Healthcare, Piscataway, N.J., USA) were used for the chemiluminescence.
(§2) 200 μg/ml of extract that contains 0.181% of cynaropricrin contain 1.2 μM of cynaropricrin.
(In general: Mobility shift assays separate free from complexed probe on a gel.)

Data set [4] deals with GSH. Nature of the data set: Intracellular analysis of GSH (colorimetric). The format is cell-based. As to conditions: cynaropicrin 12.5, 25, 50 μM. The procedure: The intracellular concentration of GSH was evaluated by means of a colorimetric method. The cell extract, deproteinised by means of 10% trichloroacetic acid, was treated with dithio nitrobenzene (DTNB), and the quantity of TNB, which is released following the reaction with GSH, was evaluated by analysing the absorbance at 412 nm.

The subject of data set [5] is STAT3. Kind of data set: Glutathionylation of STAT3. The class given is cell-based. As to conditions: cynaropicrin 12 microM, 25 μM. On the procedure: STAT3 was immunoprecipitated by incubating the protein cell extract overnight with an anti-STAT3 antibody. The proteins obtained were separated by means of SDS-PAGE in non-reducing conditions and were transferred on PVDF membrane. The glutathionylated STAT3 was recognised using an anti-GSH antibody.

Data set [6] has as its target T1, STAT3. Kind of data set: Modulation of the STAT3 pathway in DU145 cells (Western Blot, EMSA). Details: The cell line DU145 expresses pStat3 in a constitutive manner; endogenous in cells; host or cells: DU145 (human prostate carcinoma, ATCC HTB-81). The following applies: extract 200 μg/ml (0.181% cynaropicrin) 2-4 hours, cynaropicrin 25 μM. The class given is cell-based. The procedure:
as §1, §2

The subject of data set [7] is MDA-MB231. Nature of the data set: Cell vitality by Trypan Blue/Countess, MDA-MB231 under normoxia. The class given is cell-based. As to conditions: Homo sapiens, MDA-MB-231, 24 hours. On the procedure: Human breast cancer cell lines T47-D and MDA-MB231, human colorectal adenocarcinoma line HT-29, human prostate cancer line DU145, human uterine cervix carcinoma cell line HeLa, human hepatocarcinoma cell line HepG2 (ATCC, American Type Culture Collection) were cultivated in DMEM (BioWhittaker, Cambrex Bio Science, Belgium) in a 5% CO2 atmosphere at 37° C.
(§3) Cell vitality was assessed with a 0.4% Trypan Blue exclusion test, using an automated Countess cell counter (Life Technologies™).
The model created appears adapted for the study of plant extracts to be used in association with the classic chemotherapeutic agents. Then cells were treated with doxorubicin, with plant extracts or with their association, and cell vitality was analysed by Trypan Blue/Countess Invitrogen as described in the annexed Materials and Methods. The following treatments were performed:
MDA-MB231 cells cultivated under normoxia and under chronic hypoxia were treated for 24 hours with various concentrations of doxorubicin, elective drug in the treatment of breast cancer.

Data set [8] can be described thus: in vitro. The following applies: human. The class given is cell-based, human. On the procedure: (§4) To establish a chronic hypoxia model, the above cell lines were cultivated in DMEM with 10% FBS in 5% CO2 and 1% O2 atmosphere, balanced with N using a multigas incubator (Ruskinn C300, Ruskinn Technology Ltd., Bridgend, United Kingdom). Cells survived through each cell passage were selected and cultivated with reoxygenation and hypoxia cycles for at least 3 months and up to 6 months.
as §3
(§5) In order to re-create a state of chronic hypoxia, present in the interior of a solid tumour, all cell lines indicated in the table above were cultivated for some months in the Ruskin Cabinet at 37° C., under a 1% O2 atmosphere. The medium was changed every three days so as to eliminate dead cells, and approximately every 10-15 days the cells were placed in the incubator under normoxia conditions for 24 hours.
(§6) Among all cells analysed, only MDA-MB231 cell line adapted to the hypoxic environment and survived. […]
(§7) The model created appears adapted for the study of plant extracts to be used in association with the classic chemotherapeutic agents. Then cells were treated with doxorubicin, with plant extracts or with their association, and cell vitality was analysed by Trypan Blue/Countess Invitrogen as described in the annexed Materials and Methods. […]

Data set [9] deals with ChR-MDA-MB231. Nature of the data set: cells. The class given is cell-based, human. The following applies: Homo sapiens; chMDAMB231, chronic hypoxia; 24 hours; read-out: EC50 cell vitality. The procedure:
as §4, §3, §5, §6, §7

T1 sequence (P40763 whole entry): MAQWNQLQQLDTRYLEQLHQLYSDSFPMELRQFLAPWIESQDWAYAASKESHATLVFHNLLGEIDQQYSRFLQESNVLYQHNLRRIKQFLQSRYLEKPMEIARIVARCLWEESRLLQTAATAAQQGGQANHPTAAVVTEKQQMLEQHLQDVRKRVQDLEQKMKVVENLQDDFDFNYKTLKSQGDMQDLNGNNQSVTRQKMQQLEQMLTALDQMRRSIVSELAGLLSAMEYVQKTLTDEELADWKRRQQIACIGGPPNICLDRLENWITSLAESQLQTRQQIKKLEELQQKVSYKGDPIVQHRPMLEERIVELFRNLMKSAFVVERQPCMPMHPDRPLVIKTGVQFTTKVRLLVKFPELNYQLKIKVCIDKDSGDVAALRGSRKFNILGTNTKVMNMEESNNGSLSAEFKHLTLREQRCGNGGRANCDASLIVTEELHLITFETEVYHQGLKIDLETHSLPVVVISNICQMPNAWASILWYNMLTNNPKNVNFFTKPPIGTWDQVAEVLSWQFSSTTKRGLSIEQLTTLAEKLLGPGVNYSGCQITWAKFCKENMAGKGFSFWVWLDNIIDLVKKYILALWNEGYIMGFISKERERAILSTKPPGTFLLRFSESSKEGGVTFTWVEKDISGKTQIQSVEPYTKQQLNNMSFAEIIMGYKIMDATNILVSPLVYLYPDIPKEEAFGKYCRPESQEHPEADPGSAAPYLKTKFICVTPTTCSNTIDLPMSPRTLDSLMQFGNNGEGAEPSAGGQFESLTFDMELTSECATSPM

For `C=C(CO)C(=O)O[C@H]1CC(=C)[C@@H]2C[C@H](O)C(=C)[C@@H]2[C@H]2OC(=O)C(=C)[C@@H]21` [cynaropicrin], the “molarity of cynaropicrin necessary to reduce cell vitality below 20%, relative to that present in the artichoke extract” value in [1] (with cisplatinum 15 μg/ml) is “forty times greater”; in [1] (with doxorubicin 2 μg/ml), “approximately twenty-five times greater”. In [2] (24 and 48 hours, extract 50-600 μg/ml, cynaropicrin 0-70 μM), the “cell vitality (WST-1)” value was “inhibits cell vitality in a time-dependent and dose-dependent manner”. In addition, the “concentration of cynaropicrin for reduction of vitality equal to approximately 90%” value in [2] (48 hours, cynaropicrin alone) was found to be 50 µM. The “binding of STAT3 to DNA (EMSA)” value in data set [3] is reported as “inhibits the binding of STAT3 to DNA”; in [6] it was “inhibit the binding of STAT3 to DNA”. Also, the results for the “phosphorylation of STAT3 (Western Blot)” value in data set [3] and in [6] were “inhibits the phosphorylation of STAT3” and “inhibit the phosphorylation of STAT3”, respectively. The “intracellular concentration of GSH” value in data set [4] was “time-dependent and dose-dependent reduction of the intracellular concentration of GSH”. In [5], the “glutathionylation of STAT3” value is “determines the glutathionylation of STAT3”.
In general, EC50 refers to the concentration needed to bring the measured effect to its halfway point. As usually defined, the mortality is the percentage killed. For `COc1cccc2c1C(=O)c1c(O)c3c(c(O)c1C2=O)C[C@@](O)(C(=O)CO)C[C@@H]3O[C@H]1C[C@H](N)[C@H](O)[C@H](C)O1` [doxorubicin], the values for the EC50 in data set [7] and in data set [9] were 0.25 µg/mL (≈ 0.46 µM) and 1 µg/mL (≈ 1.84 µM), respectively. Moreover, the mortality at 0.25 ug/ml in data set [8] was 20%.
